Results on 23 compounds are retold here after US12473304B2, “Heterocyclic PAD4 inhibitors” (BRISTOL-MYERS SQUIBB COMPANY, priority 2020, dated 2025).

Molecules are shown by their SMILES.

Sequence of human PAD4 (hPAD4) (Q9UM07 whole entry): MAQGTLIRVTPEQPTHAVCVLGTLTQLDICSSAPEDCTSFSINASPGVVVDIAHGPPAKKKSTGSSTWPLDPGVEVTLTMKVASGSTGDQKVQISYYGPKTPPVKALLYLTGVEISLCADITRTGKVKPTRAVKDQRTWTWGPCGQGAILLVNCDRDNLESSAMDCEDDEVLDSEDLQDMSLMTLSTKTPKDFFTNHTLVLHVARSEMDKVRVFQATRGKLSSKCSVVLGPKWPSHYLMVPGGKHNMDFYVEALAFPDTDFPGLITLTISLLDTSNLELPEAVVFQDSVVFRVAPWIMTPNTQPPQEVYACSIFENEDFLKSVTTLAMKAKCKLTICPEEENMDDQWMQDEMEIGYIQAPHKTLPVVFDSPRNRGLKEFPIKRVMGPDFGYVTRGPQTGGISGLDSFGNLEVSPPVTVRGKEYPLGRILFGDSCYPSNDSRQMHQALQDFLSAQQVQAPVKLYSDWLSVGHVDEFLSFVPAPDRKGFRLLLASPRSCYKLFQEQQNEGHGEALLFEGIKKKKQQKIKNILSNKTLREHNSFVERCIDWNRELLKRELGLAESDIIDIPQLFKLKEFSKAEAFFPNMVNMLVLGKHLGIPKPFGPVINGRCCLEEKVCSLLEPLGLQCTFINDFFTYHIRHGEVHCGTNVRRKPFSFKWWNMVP

The target of this test is human PAD4 (hPAD4) (Homo sapiens (Human), UniProt Q9UM07). Kind of test: RFMS Human PAD4 Functional Assay 1. Format: biochemical. The note with it: RFMS assay 1; 5 nM hPAD4, 250 μM BAEE substrate, 50 μM calcium, 37° C. The method, boiled down:
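Recombinant hPAD4 (5 nM) was preincubated with compound (top 50 μM, 0.5% DMSO) for 30 min at 37 °C, then reacted with 250 μM BAEE for 90 min at 37 °C in pH 7.5 HEPES buffer with 50 μM calcium and 5 μM TPEN. Product was derivatized with phenyl glyoxal and quantified by RapidFire MS.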
Take `Cc1c(-c2cc3ccccc3n2CC2CC2)oc2cc(C(=O)N3CC4CCC3[C@@H]4N)ccc12` (stereo partly drawn) [Example 176, ((7R)-7-Amino-2-azabicyclo[2.2.1]heptan-2-yl)(2-(1-(cyclopropylmethyl)-1H-indol-2-yl)-3-methylbenzofuran-6-yl)methanone]: the IC50 came to 229 nM.
As to `COc1cc(C(=O)N2CC3CCC2[C@@H]3N)cc2oc(-c3cc4ccc(-c5ccc6c(c5)C(=O)NC6)cc4n3CC3CC3)c(C)c12` (stereo partly drawn) [Example 150, 6-(2-(6-((7R)-7-Amino-2-azabicyclo[2.2.1]-heptane-2-carbonyl)-4-methoxy-3-methylbenzofuran-2-yl)-1-(cyclopropylmethyl)-1H-indol-6-yl)isoindolin-1-one], the IC50 was 187 nM.
`Cc1c(-c2cc3ccc(-c4cccc5[nH]nc(F)c45)nc3n2CC2CC2)nn2cc(C(=O)N3CC4CCC3[C@@H]4N)ccc12` (stereo partly drawn) [Example 297, (7R)-2-{2-[1-(Cyclopropylmethyl)-6-(3-fluoro-1H-indazol-4-yl)-1H-pyrrolo[2,3-b]pyridin-2-yl]-3-methylpyrazolo[1,5-a]pyridine-6-carbonyl}-2-azabicyclo[2.2.1]heptan-7-amine]: the IC50 was 190 nM.
With `COc1cc(C(=O)N2CC3CCC2[C@@H]3N)cc2sc(-c3cc4ccc(-c5ccc6c(c5)CNC6=O)nc4n3CC3CC3)c(C)c12` (stereo partly drawn) [Example 132, 5-(2-(6-((7R)-7-Amino-2-azabicyclo[2.2.1]heptane-2-carbonyl)-4-methoxy-3-methylbenzo-[b]thiophen-2-yl)-1-(cyclopropylmethyl)-1H-pyrrolo[2,3-b]pyridin-6-yl)isoindolin-1-one], the IC50 came to 476 nM.
With `Cc1c(-c2cc3cccc(C4CCN(C(=O)CO)CC4)c3n2CC2CC2)nn2cc(C(=O)N3C[C@H](N)C[C@@H](F)C3)ccc12` [Example 438, 1-(4-(2-(6-((3R,5R)-3-amino-5-fluoropiperidine-1-carbonyl)-3-methylpyrazolo[1,5-a]pyridin-2-yl)-1-(cyclopropylmethyl)-1H-indol-7-yl)piperidin-1-yl)-2-hydroxyethan-1-one], the IC50 was 30 nM.
In the case of `COc1cc(C(=O)N2CCC[C@@H](N)C2)cn2nc(-c3cc4cccc(C5CCN(C(=O)C6CC(O)C6)CC5)c4n3CC3CC3)c(C)c12` (single isomer, unassigned) [Example 396], the IC50 came to 110 nM.
`CC(=O)N(C)C1CCN(c2ccc3cc(-c4nn5cc(C(=O)N6CCC[C@@H](N)C6)cc(F)c5c4C)n(CC4CC4)c3n2)CC1` [Example 271, N-[1-(2-{6-[(3R)-3-Aminopiperidine-1-carbonyl]-4-fluoro-3-methylpyrazolo[1,5-a]pyridin-2-yl}-1-(cyclopropylmethyl)-1H-pyrrolo[2,3-b]pyridin-6-yl)piperidin-4-yl]-N-methylacetamide]: the IC50 amounted to 2070 nM.
Regarding `COc1cc(C(=O)N2C[C@H](N)C[C@@H](F)C2)cc2sc(-c3cc4ccc(-c5ccc6c(c5)CNC6=O)nc4n3CC3CC3)c(C)c12` [Example 139, 5-(2-(6-((3R,5R)-3-Amino-5-fluoropiperidine-1-carbonyl)-4-methoxy-3-methylbenzo[b]thiophen-2-yl)-1-(cyclopropylmethyl)-1H-pyrrolo[2,3-b]pyridin-6-yl)isoindolin-1-one], the half-maximal inhibitory concentration (IC50) came to 198 nM.
Consider `Cc1c(-c2cc3ccc(N4CCC5(CC4)CN(C)C(=O)O5)nc3n2CC2CC2)nn2cc(C(=O)N3CCC[C@@H](N)C3)cc(F)c12` [Example 269, 8-(2-{6-[(3R)-3-Aminopiperidine-1-carbonyl]-4-fluoro-3-methylpyrazolo[1,5-a]pyridin-2-yl}-1-(cyclopropylmethyl)-1H-pyrrolo[2,3-b]pyridin-6-yl)-3-methyl-1-oxa-3,8-diazaspiro[4.5]decan-2-one], for which the IC50 was 540 nM.
`Cc1c(-c2cc3cccc(C4CN(C(=O)[C@H]5CC[C@@H](O)CC5)C4)c3n2CC2CC2)nn2cc(C(=O)N3CCC[C@@H](N)C3)ccc12` [Example 539, ((R)-3-Aminopiperidin-1-yl)(2-(1-(cyclopropylmethyl)-7-(1-((1s,4s)-4-hydroxycyclohexane-1-carbonyl)azetidin-3-yl)-1H-indol-2-yl)-3-methylpyrazolo[1,5-a]pyridin-6-yl)methanone]: the half-inhibitory concentration (IC50) turned out to be 130 nM.
As for `COC(=O)N(C)C1CCN(c2ccc3cc(-c4nn5cc(C(=O)N6C[C@H](N)C[C@@H](F)C6)ccc5c4C)n(CC4CC4)c3c2)CC1` [Example 352, Methyl N-[1-(2-{6-[(3R,5R)-3-amino-5-fluoropiperidine-1-carbonyl]-3-methylpyrazolo[1,5-a]pyridin-2-yl}-1-(cyclopropylmethyl)-1H-indol-6-yl)piperidin-4-yl]-N-methylcarbamate], the IC50 was 810 nM.
As to `COc1cc(C(=O)N2C[C@H](N)C[C@@H](F)C2)cn2nc(-c3cc4cccc(C5CN(C(=O)[C@@H](C)OC)C5)c4n3CC3CC3)c(C)c12` [Example 526, (R)-1-(3-(2-(6-((3R,5R)-3-Amino-5-fluoropiperidine-1-carbonyl)-4-methoxy-3-methylpyrazolo[1,5-a]pyridin-2-yl)-1-(cyclopropylmethyl)-1H-indol-7-yl)azetidin-1-yl)-2-methoxypropan-1-one], the IC50 came to 260 nM.
For the compound `Cc1c(-c2cc3ccnc(OCCn4cnnc4)c3n2CC2CC2)nn2cc(C(=O)N3C[C@H](N)C[C@@H](F)C3)ccc12` [Example 613, (2-(7-(2-(4H-1,2,4-Triazol-4-yl)ethoxy)-1-(cyclopropylmethyl)-1H-pyrrolo[2,3-c]pyridin-2-yl)-3-methylpyrazolo[1,5-a]pyridin-6-yl)((3R,5R)-3-amino-5-fluoropiperidin-1-yl)methanone], the IC50 came to 250 nM.
Then `Cc1c(-c2cc3ccc(-c4ccc5c(c4)C(=O)NC5)nc3n2CC2CC2)nn2cc(C(=O)N3CCC[C@@H](N)C3)ccc12` [Example 315], with 340 nM; and `Cc1c(-c2cc3ccc(-c4ccc5[nH]ncc5c4)cc3n2CC2CC2)nn2cc(C(=O)N3CC4CCC3[C@@H]4N)ccc12` (stereo partly drawn) [Example 333, (7R)-2-{2-[1-(Cyclopropylmethyl)-6-(1H-indazol-5-yl)-1H-indol-2-yl]-3-methylpyrazolo[1,5-a]pyridine-6-carbonyl}-2-azabicyclo[2.2.1]heptan-7-amine], with 20 nM.
`COc1cc(C(=O)N2C[C@H](N)C[C@@H](F)C2)cn2nc(-c3cc4ccc(-c5ccc6c(c5)C(=O)NC6)cc4n3CC3CC3)c(C)c12` [Example 29, 6-(2-(6-((3R,5R)-3-Amino-5-fluoropiperidine-1-carbonyl)-4-methoxy-3-methylpyrazolo[1,5-a]pyridin-2-yl)-1-(cyclopropylmethyl)-1H-indol-6-yl)isoindolin-1-one]: the concentration for half-maximal inhibition (IC50) is 1020 nM.
On to `COc1cc(C(=O)N2C[C@H](N)C[C@@H](F)C2)cn2nc(-c3cc4ccc(-c5ccc6c(c5)C(=O)NC6)nc4n3CC3CC3)c(C)c12` [Example 16, 6-(2-(6-((3R,5R)-3-Amino-5-fluoropiperidine-1-carbonyl)-4-methoxy-3-methylpyrazolo[1,5-a]pyridin-2-yl)-1-(cyclopropylmethyl)-1H-pyrrolo[2,3-b]pyridin-6-yl)isoindolin-1-one], for which the IC50 turned out to be 407 nM.
For the compound `COc1cc(C(=O)N2CC3CCC2[C@@H]3N)cn2nc(-c3cc4cccc(C5CCN(C(C)=O)CC5)c4n3CC3CC3)c(C)c12` (stereo partly drawn) [Example 412, 1-(4-(2-(6-((7R)-7-Amino-2-azabicyclo[2.2.1]heptane-2-carbonyl)-4-methoxy-3-methylpyrazolo[1,5-a]pyridin-2-yl)-1-(cyclopropylmethyl)-1H-indol-7-yl)piperidin-1-yl)ethan-1-one], the IC50 is 10 nM.
On to `COc1cc(C(=O)N2CCC[C@@H](N)C2)cn2nc(-c3cc4cccc(C5CCN(C(=O)[C@H](C)OC)CC5)c4n3CC3CC3)c(C)c12` [Example 403, (S)-1-(4-(2-(6-((R)-3-Aminopiperidine-1-carbonyl)-4-methoxy-3-methylpyrazolo[1,5-a]pyridin-2-yl)-1-(cyclopropylmethyl)-1H-indol-7-yl)piperidin-1-yl)-2-methoxypropan-1-one], for which the IC50 was determined as 460 nM.
Consider `Cc1c(-c2cc3cccc(OCC4CNC(=O)C4)c3n2CC2CC2)nn2cc(C(=O)N3C[C@H](N)C[C@@H](F)C3)cc(F)c12` (single isomer, unassigned) [Example 567], for which the IC50 turned out to be 20 nM.
For `Cc1c(-c2cc3ccc(-c4ccn5c(C)nnc5c4)nc3n2CC2CC2)nn2cc(C(=O)N3CC4CCC3[C@@H]4N)cc(F)c12` (stereo partly drawn) [Example 43, ((7R)-7-Amino-2-azabicyclo[2.2.1]heptan-2-yl)(2-(1-(cyclopropylmethyl)-6-(3-methyl-[1,2,4]triazolo[4,3-a]pyridin-7-yl)-1H-pyrrolo[2,3-b]pyridin-2-yl)-4-fluoro-3-methylpyrazolo[1,5-a]pyridin-6-yl)methanone], the IC50 was found to be 150 nM.
As for `Cc1c(-c2cc3ccc(-c4ccn5c(C)nnc5c4)cc3n2CC2CC2)nn2cc(C(=O)N3CC4CCC3[C@@H]4N)cc(F)c12` (stereo partly drawn) [Example 62, ((7R)-7-Amino-2-azabicyclo[2.2.1]heptan-2-yl)(2-(1-(cyclopropylmethyl)-6-(3-methyl-[1,2,4]triazolo[4,3-a]pyridin-7-yl)-1H-indol-2-yl)-4-fluoro-3-methylpyrazolo[1,5-a]pyridin-6-yl)methanone], the IC50 is 28 nM.
In the case of `COc1cc(C(=O)N2C[C@H](N)C[C@@H](F)C2)cn2nc(-c3cc4cccc(C5CCN(C(=O)[C@H]6CC[C@H](O)CC6)CC5)c4n3CC3CC3)c(C)c12` [Example 409, ((3R,5R)-3-Amino-5-fluoropiperidin-1-yl)(2-(1-(cyclopropylmethyl)-7-(1-((1r,4r)-4-hydroxycyclohexane-1-carbonyl)piperidin-4-yl)-1H-indol-2-yl)-4-methoxy-3-methylpyrazolo[1,5-a]pyridin-6-yl)methanone], the IC50 was 40 nM.

The IC50 is the concentration needed to halve the response being measured.
